In US10023590B2, “Substituted pyridine compounds having herbicidal activity” (BASF SE, priority 2014, dated 2018):
Like-named read-outs stand apart in the source and are kept apart here.

Columns and labels:
Format in all cases: in vivo
[1] = tested on: Abutilon theophrasti; assay: Greenhouse post-emergence herbicidal activity, ABUTH; conditions: for pest or weed control at 1000 g/ha: 1 kg/ha
From the text: (§1) The culture containers used were plastic flowerpots containing loamy sand with approximately 3.0% of humus as the substrate. The seeds of the test plants were sown separately for each species.
(§2) For the post-emergence treatment, the test plants were first grown to a height of 3 to 15 cm, depending on the plant habit, and only then treated with the active ingredients which had been suspended or emulsified in water. For this purpose, the test plants were either sown directly and grown in the same containers, or they were first grown separately as seedlings and transplanted into the test containers a few days prior to treatment.
(§3) Depending on the species, the plants were kept at 10-25° C. or 20-35° C., respectively.
(§4) The test period extended over 2 to 4 weeks. During this time, the plants were tended, and their response to the individual treatments was evaluated.
(§5) Evaluation was carried out using a scale from 0 to 100. 100 means no emergence of the plants, or complete destruction of at least the aerial moieties, and 0 means no damage, or normal course of growth. A good herbicidal activity is given at values of at least 70 and a very good herbicidal activity is given at values of at least 85.

[2] = tested on: Polygonum persicaria; assay: Greenhouse post-emergence herbicidal activity, POLPE; conditions: 0.031 kg/ha, scale 0 to 100
From the text: as §1, §2, §3, §4, §5

[3] = tested on: Kochia scoparia; assay: Greenhouse post-emergence herbicidal activity, KCHSC; conditions: scale 0 to 100
From the text: as §1, §2, §3, §4, §5

[4] = tested on: Amaranthus retroflexus; assay: Greenhouse post-emergence herbicidal activity, AMARE; conditions: for pest or weed control at 31 g/ha: 0.031 kg/ha; for pest or weed control at 63 g/ha: 0.063 kg/ha; for pest or weed control at 125 g/ha: 0.125 kg/ha; for pest or weed control at 1000 g/ha: 1 kg/ha
Outline: (§6)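 Post-emergence spray, water suspension/emulsion, on 3-15 cm plants in loamy sand with ~3.0% humus. 10-25° C. or 20-35° C. per species; 2-4 wk. Visual score 0-100, 100 = complete kill.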

[5] = tested on: Zea mays; assay: Greenhouse post-emergence herbicidal activity on crop ZEAMX (corn, maize); design: key: 0 = no damage/normal growth, 100 = no emergence or complete destruction; conditions: ZEAMX (corn, crop), scale 0 to 100
Outline: as §6

[6] = tested on: Capsella bursa-pastoris; assay: Greenhouse post-emergence herbicidal activity, CAPBP; conditions: scale 0 to 100
From the text: as §1, §2, §3, §4, §5

[7] = tested on: Stellaria media; assay: Greenhouse post-emergence herbicidal activity, STEME; conditions: scale 0 to 100
From the text: as §1, §2, §3, §4, §5

[8] = tested on: Brachiaria decumbens; assay: Greenhouse post-emergence herbicidal activity, BRADC; conditions: 0.125 kg/ha, scale 0 to 100
From the text: as §1, §2, §3, §4, §5

[9] = tested on: Echinocloa crus-galli; assay: Greenhouse post-emergence herbicidal activity, ECHCG; conditions: Echinochloa crus-galli; for pest or weed control at 125 g/ha: 0.125 kg/ha; for pest or weed control at 1000 g/ha: 1 kg/ha
Outline: as §6

[10] = tested on: Cirsium arvense; assay: Greenhouse post-emergence herbicidal activity, CIRAR; conditions: for pest or weed control at 31 g/ha: 0.031 kg/ha
From the text: as §1, §2, §3, §4, §5

[11] = tested on: Eriochloa villosa; assay: Greenhouse post-emergence herbicidal activity, ERBVI; conditions: scale 0 to 100
From the text: as §1, §2, §3, §4, §5

[12] = tested on: Brachiaria deflexa; assay: Greenhouse post-emergence herbicidal activity, BRADE; conditions: 0.031 kg/ha, scale 0 to 100
From the text: as §1, §2, §3, §4, §5

[13] = tested on: Chenopodium album; assay: Greenhouse post-emergence herbicidal activity, CHEAL; conditions: scale 0 to 100; for pest or weed control at 31 g/ha: 0.031 kg/ha; for pest or weed control at 63 g/ha: 0.063 kg/ha; for pest or weed control at 125 g/ha: 0.125 kg/ha
Outline: as §6

[14] = tested on: Setaria viridis; assay: Greenhouse post-emergence herbicidal activity, SETVI; conditions: 2 kg/ha, scale 0 to 100
From the text: as §1, §2, §3, §4, §5

[15] = tested on: Commelina benghalensis; assay: Greenhouse post-emergence herbicidal activity, COMBE; conditions: 0.125 kg/ha, scale 0 to 100
From the text: as §1, §2, §3, §4, §5

[16] = tested on: Oryza sativa; assay: Greenhouse post-emergence herbicidal activity on crop ORYSA (rice); conditions: ORYSA (rice, crop), scale 0 to 100
Outline: as §6

[17] = tested on: Ipomoea hederacea; assay: Greenhouse post-emergence herbicidal activity, IPOHE; conditions: scale 0 to 100
From the text: as §1, §2, §3, §4, §5

[18] = tested on: Veronica arvensis; assay: Greenhouse post-emergence herbicidal activity, VERAR; conditions: scale 0 to 100
From the text: as §1, §2, §3, §4, §5

[19] = tested on: Ambrosia artemisiifolia; assay: Greenhouse post-emergence herbicidal activity, AMBEL; conditions: scale 0 to 100
From the text: as §1, §2, §3, §4, §5

[20] = tested on: Sesbania herbacea; assay: Greenhouse post-emergence herbicidal activity, SEBEX; conditions: 0.125 kg/ha, scale 0 to 100
From the text: as §1, §2, §3, §4, §5

[21] = tested on: Setaria faberi; assay: Greenhouse post-emergence herbicidal activity, SETFA; conditions: scale 0 to 100
From the text: as §1, §2, §3, §4, §5

[22] = tested on: Polygonum aviculare; assay: Greenhouse post-emergence herbicidal activity, POLAV; conditions: 0.25 kg/ha, scale 0 to 100
From the text: as §1, §2, §3, §4, §5

[23] = tested on: Brachiaria plantaginea; assay: Greenhouse post-emergence herbicidal activity, BRAPL; conditions: scale 0 to 100
From the text: as §1, §2, §3, §4, §5

[24] = tested on: Panicum miliaceum; assay: Greenhouse post-emergence herbicidal activity, PANMI; conditions: 0.031 kg/ha, scale 0 to 100
From the text: as §1, §2, §3, §4, §5

[25] = ABUTH, 2 kg/ha, scale 0 to 100, read-out: Herbicidal activity
[26] = ECHCG, 2 kg/ha, scale 0 to 100, read-out: Herbicidal activity
[27] = AMARE, 2 kg/ha, scale 0 to 100, read-out: Herbicidal activity
[28] = CIRAR, 0.063 kg/ha, scale 0 to 100, read-out: Herbicidal activity

SMILES	Herbicidal activity ([5]; 0.063 kg/ha)	Herbicidal activity ([6]; 0.125 kg/ha)	pest or weed control at 31 g/ha ([4]; AMARE, scale 0 to 100) [%]	pest or weed control at 63 g/ha ([4]; AMARE, scale 0 to 100) [%]	pest or weed control at 125 g/ha ([4]; AMARE, scale 0 to 100) [%]	Herbicidal activity ([5]; 0.031 kg/ha)	Herbicidal activity ([5]; 0.125 kg/ha)	pest or weed control at 31 g/ha [13] [%]	pest or weed control at 2000 g/ha [9, 26] [%]	pest or weed control at 63 g/ha [13] [%]	pest or weed control at 125 g/ha [13] [%]	pest or weed control at 31 g/ha ([10]; CIRAR, scale 0 to 100) [%]	pest or weed control at 63 g/ha [10, 28] [%]	Herbicidal activity ([16]; 0.125 kg/ha)	Herbicidal activity ([16]; 0.031 kg/ha)	Herbicidal activity ([16]; 0.063 kg/ha)	also measured
CN(c1c(Cl)ccc(C2=C(O)c3ncccc3C(C)(C)S2(=O)=O)c1Cl)S(C)(=O)=O [I-2, N-[2,6-dichloro-3-(8-hydroxy-5,5-dimethyl-6,6-dioxo-thiopyrano[4,3-b]pyridin-7-yl)phenyl]-N-methyl-methanesulfonamide]	5	100	–	–	–	–	–	–	–	–	–	–	–	–	–	–	pest or weed control at 2000 g/ha ([1]; read-out: Herbicidal activity): 100%; Herbicidal activity [2]: 98; Herbicidal activity ([3]; 0.031 kg/ha): 95; Herbicidal activity ([3]; 0.063 kg/ha): 98; Herbicidal activity ([3]; 0.125 kg/ha): 100; pest or weed control at 2000 g/ha ([4]; read-out: Herbicidal activity): 100%; Herbicidal activity ([7]; 0.031 kg/ha): 100; Herbicidal activity ([7]; 0.063 kg/ha): 100; Herbicidal activity [8]: 100; pest or weed control at 2000 g/ha ([9]; read-out: Herbicidal activity): 100%; pest or weed control at 63 g/ha ([10]; read-out: Herbicidal activity): 98%
CCN(c1c(Cl)ccc(C2=C(O)c3ncccc3C(C)(C)S2(=O)=O)c1Cl)S(C)(=O)=O [I-9, N-[2,6-dichloro-3-(8-hydroxy-5,5-dimethyl-6,6-dioxo-thiopyrano[4,3-b]pyridin-7-yl)phenyl]-N-ethyl-methanesulfonamide]	10	–	98	98	98	5	50	98	100	–	–	–	–	–	–	–	pest or weed control at 2000 g/ha [1, 25]: 98%; Herbicidal activity ([11]; 0.063 kg/ha): 98; Herbicidal activity ([3]; 0.063 kg/ha): 100; Herbicidal activity [12]: 100; Herbicidal activity [14]: 100; pest or weed control at 125 g/ha ([9]; ECHCG, scale 0 to 100): 98%; pest or weed control at 125 g/ha ([10]; CIRAR, 0.125 kg/ha, scale 0 to 100): 100%
CC(C)N(c1c(Cl)ccc(C2=C(O)c3ncccc3C(C)(C)S2(=O)=O)c1Cl)S(C)(=O)=O [I-11, N-[2,6-dichloro-3-(8-hydroxy-5,5-dimethyl-6,6-dioxo-thiopyrano[4,3-b]pyridin-7-yl)phenyl]-N-isopropyl-methanesulfonamide]	–	100	–	–	–	0	–	98	100	98	100	90	95	20	–	–	Herbicidal activity [15]: 100; pest or weed control at 2000 g/ha [4, 27]: 100%; Herbicidal activity ([6]; 0.031 kg/ha): 98; Herbicidal activity ([6]; 0.063 kg/ha): 100; Herbicidal activity [14]: 100
CN(c1cccc(C2=C(OC(=O)C(C)(C)C)c3ncccc3C(C)(C)S2(=O)=O)c1Cl)S(C)(=O)=O [I-16, [7-[2-chloro-3-[methyl(methylsulfonyl)amino]phenyl]-5,5-dimethyl-6,6-dioxo-thiopyrano[4,3-b]pyridin-8-yl] 2,2-dimethylpropanoate]	0	–	75	–	90	0	0	95	–	98	98	–	85	0	0	0	Herbicidal activity ([17]; 0.031 kg/ha): 70; Herbicidal activity ([18]; 0.25 kg/ha): 100; pest or weed control at 250 g/ha ([13]; 0.25 kg/ha): 100%; Herbicidal activity ([19]; 0.063 kg/ha): 100; Herbicidal activity ([19]; 0.125 kg/ha): 100; Herbicidal activity ([19]; 0.25 kg/ha): 100; Herbicidal activity ([16]; 0.25 kg/ha): 0
CN(C)S(=O)(=O)Oc1c(Cl)ccc(C2=C(O)c3ncccc3C(C)(C)S2(=O)=O)c1Cl [I-23]	0	–	–	70	–	0	15	85	–	95	98	75	80	0	0	0	Herbicidal activity ([17]; 0.125 kg/ha): 95; pest or weed control at 1000 g/ha ([1]; ABUTH, scale 0 to 100): 80%; pest or weed control at 1000 g/ha ([4]; AMARE, scale 0 to 100): 100%; Herbicidal activity [20]: 98; pest or weed control at 1000 g/ha ([9]; ECHCG, scale 0 to 100): 95%
CC1(C)c2cccnc2C(O)=C(c2ccc(Cl)c(N(C3CC3)S(C)(=O)=O)c2Cl)S1(=O)=O [I-25, N-cyclopropyl-N-[2,6-dichloro-3-(8-hydroxy-5,5-dimethyl-6,6-dioxo-thiopyrano[4,3-b]pyridin-7-yl)phenyl]methanesulfonamide]	–	95	95	98	98	5	20	–	–	95	–	95	–	–	–	35	pest or weed control at 250 g/ha ([4]; AMARE, 0.25 kg/ha, scale 0 to 100): 98%; Herbicidal activity ([21]; 0.031 kg/ha): 95; Herbicidal activity ([21]; 0.063 kg/ha): 95; Herbicidal activity ([21]; 0.125 kg/ha): 95; Herbicidal activity [22]: 100; Herbicidal activity ([19]; 0.25 kg/ha): 100; Herbicidal activity ([16]; 0.25 kg/ha): 35
Cc1c(C2=C(O)c3ncccc3CS2(=O)=O)ccc(Cl)c1N(C)S(C)(=O)=O [I-26, N-[6-chloro-3-(8-hydroxy-6,6-dioxo-5H-thiopyrano[4,3-b]pyridin-7-yl)-2-methyl-phenyl]-N-methyl-methanesulfonamide]	15	–	–	85	90	–	15	–	100	–	98	–	–	45	–	–	pest or weed control at 2000 g/ha [1, 25]: 100%; Herbicidal activity ([11]; 0.031 kg/ha): 90; Herbicidal activity ([11]; 0.063 kg/ha): 95; Herbicidal activity ([11]; 0.125 kg/ha): 95; Herbicidal activity ([23]; 0.031 kg/ha): 90; Herbicidal activity ([23]; 0.063 kg/ha): 90; pest or weed control at 2000 g/ha [4, 27]: 100%; Herbicidal activity ([18]; 0.031 kg/ha): 90
CN(c1c(Cl)ccc(C2=C(O)c3ncccc3CS2(=O)=O)c1Cl)S(=O)(=O)C1CC1 [I-27, N-[2,6-dichloro-3-(8-hydroxy-6,6-dioxo-5H-thiopyrano[4,3-b]pyridin-7-yl)phenyl]-N-methyl-cyclopropanesulfonamide]	20	–	–	–	–	15	–	100	–	100	100	–	–	–	40	–	pest or weed control at 125 g/ha ([1]; ABUTH, 0.125 kg/ha, scale 0 to 100): 80%; pest or weed control at 1000 g/ha ([1]; ABUTH, scale 0 to 100): 95%; pest or weed control at 1000 g/ha ([4]; AMARE, scale 0 to 100): 100%; Herbicidal activity [24]: 75; Herbicidal activity ([19]; 0.031 kg/ha): 70; Herbicidal activity ([19]; 0.063 kg/ha): 75; pest or weed control at 63 g/ha ([9]; ECHCG, 0.063 kg/ha, scale 0 to 100): 98%; pest or weed control at 125 g/ha ([9]; ECHCG, scale 0 to 100): 98%; pest or weed control at 1000 g/ha ([9]; ECHCG, scale 0 to 100): 98%
